In paper PMC10552397 (Cell Communication and Signaling : CCS, 2023):

Legend:
HeLa GRASP55 KO cells = experiment: Secretome analysis by data-independent mass spectrometry; format: cell-based; conditions: 100 nM, 24 h, serum-free, not apparent in wt
Description: For the preparation of secretomes, 2*10^5 HeLa wt or HeLa GRASP55 KO cells per well were seeded in a 6-well plate (n = 5 replicates for 4 different groups). […] After incubation, the medium was collected, centrifuged at 1,000 × g and 4 °C for 10 min and filtered through a 0.2 µm Acrodisc syringe filter (VWR, Radnor, PA, USA, #514–4131). After adding protease inhibitor cocktail (Roche, Basel, Switzerland, #5,892,791,001), the samples were snap frozen in liquid nitrogen and stored at -80 °C. Proteins were prepared for mass spectrometric analysis by a modified single-pot, solid-phase-enhance sample preparation (SP3) method. […] Finally, the sample was reconstituted in 0.1% trifluoroacetic acid and half of the sample analyzed by mass spectrometry. […]
Only proteins identified with at least two different peptides and 4 valid intensity values (MaxLFQ) in at least one experimental group were considered for further analysis. […] Annotation dependent significant abundance changes of protein groups were analysed using 1D and 2D annotation enrichment and respective differences visualized with split-violin plots with OriginPro 2020b.

HeLa wt cells = experiment: Transmission electron microscopy of Golgi apparatus, HeLa wt; format: cell-based; conditions: 24 h
Description: HeLa wt and HeLa GRASP55 KO cells were seeded into 10 cm dishes. […] After treatment, cells were washed with Dulbecco´s phosphate-buffered saline (DPBS, Thermo Fisher Scientific, Waltham, MA, USA, #14,190,250) and then fixed using 2.5% glutaraldehyde and 4% paraformaldehyde in 0.1 M sodium cacodylate, pH 7.4 overnight at 4 °C. Then, cells were harvested with a cell scraper and centrifuged at 4,000 × g for 5 min. Cell pellets were washed twice with 0.1 M sodium cacodylate buffer, pH 7.2, then heated to 40 °C and embedded into 3% low melting agarose. The agarose was dissolved at 40 °C in a water bath and after aspiration of the supernatant a volume of approximately 10 µL was left, which was resuspended in agarose. After centrifugation at approximately 4,000 x g for 2 min, the samples were covered with 1% OsO4 in 0.1 M sodium cacodylate buffer for 60 min at RT. After washing two times with sodium cacodylate buffer for 10 min and twice with 70% EtOH for 15 min at RT, block contrast was applied using 1% uranyl acetate/1% phosphorotungstic acid in 70% EtOH (freshly prepared and filtered) for 1 h at RT. The samples were dehydrated in a graded ethanol series (90% EtOH, 96% EtOH, 100% EtOH) and embedded in SPURR epoxy resin (Serva, Heidelberg, Germany, #21,050). After polymerization at 70 °C for 24 h, 70 nm ultrathin sections were cut using an Ultracut EM UC7 (Leica, Wetzlar, Germany). […]

SMILES: CCCCCC1=C/C(=C/c2[nH]c(-c3ccc[nH]3)cc2OC)N=C1C [Prodigiosin, prodigiosin]
- abundance of signal peptide (SP) proteins in the secretome (HeLa GRASP55 KO cells): higher abundances
- Golgi apparatus morphology (TEM) (HeLa wt cells; 10 nM): cisternae number and length decreased and cisternae were more voluminous
- Golgi apparatus morphology (TEM) (HeLa wt cells; 100 nM): distinct swelling of the Golgi apparatus
